What is called EC50 is the concentration at which the effect is half-maximal.

Chain of RIPK1 (Q13546 1-327): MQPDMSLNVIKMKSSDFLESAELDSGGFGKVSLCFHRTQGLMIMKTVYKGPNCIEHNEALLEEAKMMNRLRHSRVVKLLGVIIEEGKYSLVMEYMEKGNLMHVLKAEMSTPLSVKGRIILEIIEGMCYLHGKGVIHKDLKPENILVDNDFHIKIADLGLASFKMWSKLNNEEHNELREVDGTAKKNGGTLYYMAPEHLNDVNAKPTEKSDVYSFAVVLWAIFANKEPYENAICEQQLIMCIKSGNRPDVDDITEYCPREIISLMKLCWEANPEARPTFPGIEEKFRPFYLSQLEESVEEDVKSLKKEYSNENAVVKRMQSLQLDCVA

This assay deals with RIPK1 (Homo sapiens (Human), UniProt Q13546). Put plainly: RIPK1-ADP-Glo Enzymatic Assay. Type of assay: biochemical. To be noted: recombinant GST-RIPK1 kinase domain (residues 1-327), 25 nM, ten-point titration, 30 minutes pre-incubation. The method, then:
The enzymatic activity of RIPK1 was measured using an assay derived from ADP-Glo kit (™Promega), which provides a luminescent-based ADP detection system. Specifically, the ADP generated by RIPK1 kinase was proportionally detected as luminescent signals in a homogenous fashion. In this context, the assessment of the inhibitory effect of small molecules (EC50) was measured by the effectiveness of the compounds to inhibit the ATP to ADP conversion by RIPK1.
In this assay, the potency (EC50) of each compound was determined from a ten-point (1:3 serial dilution: top compound concentration of 100000 nM) titration curve using the following outlined procedure. To each well of a white ProxiPlus 384 well-plate, 30 nL of compound (1% DMSO in final assay volume of 3 μL) was dispensed, followed by the addition of 2 μL of 1x assay buffer (25 mM Hepes 7.3, 20 mM MgCl2, 50 mM NaCl, 1 mM DTT, 0.005% Tween20, and 0.02% BSA) containing 37.5 nM of GST-RIPK1 (recombinant GST-RIPK1 kinase domain (residues 1-327) enzyme produced from baculovirus-transfected Sf21 cells: MW=62 kDa). Plates were placed in an ambient temperature humidified chamber for a 30 minutes pre-incubation with compound. Subsequently, each reaction was initiated by the addition of 1 μL 1× assay buffer containing […] dephosphorylated-MBP substrate. The final reaction in each well of 3 μL consists of 25 nM of GST-RIPK1, 300 µM ATP, and 3 μM dephosphorylated-MBP. Kinase reactions were allowed to proceed for 150 minutes prior to adding ADP-Glo reagents per Promega's outlined kit protocol. Dose-response curves were generated by plotting percent effect (% product conversion: Y-axis) vs. Logio compound concentrations (X-axis). EC50 values were calculated using a non-linear regression, four-parameters sigmoidal dose-response model and are provided for example compounds of the invention (labeled “RIPK1 EC50 (nM)” throughout the above examples).
(ADP-Glo first removes unused ATP, then detects ADP through luciferase.)
For `N#Cc1cc(Cl)nc(N2CCC3(CC2)CN2CC[C@@H](c4cc(F)cc(F)c4)N2C3=O)c1` [Example 1.52, (S)-2-chloro-6-(7′-(3,5-difluorophenyl)-1′-oxodihydro-1′H,3′H,5′H-spiro[piperidine-4,2′-pyrazolo[1,2-a]pyrazol]-1-yl)isonicotinonitrile], the concentration for a half-maximal effect (EC50) amounted to 54 nM.

Turning to `O=C1N2[C@H](c3cc(F)cc(F)c3)CCN2CC12CCN(c1nc(Cl)nc3[nH]ncc13)CC2` [Example 1.53, (S)-1-(6-chloro-1H-pyrazolo[3,4-d]pyrimidin-4-yl)-7′-(3,5-difluorophenyl)dihydro-1′H,3′H,5′H-spiro[piperidine-4,2′-pyrazolo[1,2-a]pyrazol]-1′-one], the half-maximal effective concentration (EC50) was determined as 857 nM.

On to `O=C1N2[C@H](c3cc(F)cc(F)c3)CCN2CC12CCN(c1ncc(Br)cn1)CC2` [Example 1.54, (S)-1-(5-bromopyrimidin-2-yl)-7′-(3,5-difluorophenyl)dihydro-1′H,3′H,5′H-spiro[piperidine-4,2′-pyrazolo[1,2-a]pyrazol]-1′-one], for which the half-maximal effective concentration (EC50) came out at 17 nM.

Regarding `O=C1N2[C@H](c3cc(F)cc(F)c3)CCN2CC12CCN(c1ncccn1)CC2` [Example 1.55, (S)-7′-(3,5-difluorophenyl)-1-(pyrimidin-2-yl)dihydro-1′H,3′H,5′H-spiro[piperidine-4,2′-pyrazolo[1,2-a]pyrazol]-1′-one], the concentration for a half-maximal effect (EC50) amounted to 804 nM.

Regarding `O=C1N2[C@H](c3cc(F)cc(F)c3)CCN2CC12CCN(c1ncc(C3CC3)cn1)CC2` [Example 1.56, (S)-1-(5-cyclopropylpyrimidin-2-yl)-7′-(3,5-difluorophenyl)dihydro-1′H,3′H,5′H-spiro[piperidine-4,2′-pyrazolo[1,2-a]pyrazol]-1′-one], the concentration for a half-maximal effect (EC50) stood at 321 nM.

For `O=C1N2[C@H](c3cc(F)cc(F)c3)CCN2CC12CCN(c1ncc(F)c(C(F)F)n1)CC2` [Example 1.57, (S)-1-(4-(difluoromethyl)-5-fluoropyrimidin-2-yl)-7′-(3,5-difluorophenyl)dihydro-1′H,3′H,5′H-spiro[piperidine-4,2′-pyrazolo[1,2-a]pyrazol]-1′-one], the EC50 turned out to be 26 nM.

Take `N#Cc1cccc(N2CCC3(CC2)CN2CC[C@@H](c4cc(F)cc(F)c4)N2C3=O)n1` [Example 1.58, (S)-6-(7′-(3,5-difluorophenyl)-1′-oxodihydro-1′H,3′H,5′H-spiro[piperidine-4,2′-pyrazolo[1,2-a]pyrazol]-1-yl)picolinonitrile]: the EC50 worked out at 34 nM.

On to `CC(C)Oc1cc(N2CCC3(CC2)CN2CC[C@@H](c4cc(F)cc(F)c4)N2C3=O)ncc1C#N` [Example 1.59, (S)-6-(7′-(3,5-difluorophenyl)-1′-oxodihydro-1′H,3′H,5′H-spiro[piperidine-4,2′-pyrazolo[1,2-a]pyrazol]-1-yl)-4-isopropoxynicotinonitrile], for which the EC50 stood at 18 nM.

For `O=C1N2[C@H](c3cc(F)cc(F)c3)CCN2CC12CCN(c1cc(Br)cc(F)n1)CC2` [Example 1.60, (S)-1-(4-bromo-6-fluoropyridin-2-yl)-7′-(3,5-difluorophenyl)dihydro-1′H,3′H,5′H-spiro[piperidine-4,2′-pyrazolo[1,2-a]pyrazol]-1′-one], the half-maximal effective concentration (EC50) stood at 17 nM.

With `CN(C)c1cc(Cl)nc(N2CCC3(CC2)CN2CC[C@@H](c4cc(F)cc(F)c4)N2C3=O)n1` [Example 1.61, (S)-1-(4-chloro-6-(dimethylamino)pyrimidin-2-yl)-7′-(3,5-difluorophenyl)dihydro-1′H,3′H,5′H-spiro[piperidine-4,2′-pyrazolo[1,2-a]pyrazol]-1′-one], the EC50 amounted to 904 nM.

`CC(=O)c1cnc(N2CCC3(CC2)CN2CC[C@@H](c4cc(F)cc(F)c4)N2C3=O)cc1Cl` [Example 1.62, (S)-1-(5-acetyl-4-chloropyridin-2-yl)-7′-(3,5-difluorophenyl)dihydro-1′H,3′H,5′H-spiro[piperidine-4,2′-pyrazolo[1,2-a]pyrazol]-1′-one]: the EC50 was determined as 20 nM.

With `O=C1N2[C@H](c3cc(F)cc(F)c3)CCN2CC12CCN(c1cccc(C(F)(F)F)n1)CC2` [Example 1.63, (S)-7′-(3,5-difluorophenyl)-1-(6-(trifluoromethyl)pyridin-2-yl)dihydro-1′H,3′H,5′H-spiro[piperidine-4,2′-pyrazolo[1,2-a]pyrazol]-1′-one], the 50% effective concentration (EC50) was determined as 83 nM.

Consider `CC(=O)c1cccc(N2CCC3(CC2)CN2CC[C@@H](c4cc(F)cc(F)c4)N2C3=O)n1` [Example 1.64, (S)-1-(6-acetylpyridin-2-yl)-7′-(3,5-difluorophenyl)dihydro-1′H,3′H,5′H-spiro[piperidine-4,2′-pyrazolo[1,2-a]pyrazol]-1′-one], for which the EC50 stood at 25 nM.

For the compound `O=C1N2[C@H](c3cc(F)cc(F)c3)CCN2CC12CCN(c1nc(Cl)nc3c1CCC3)CC2` [Example 1.65, (S)-1-(2-chloro-6,7-dihydro-5H-cyclopenta[d]pyrimidin-4-yl)-7′-(3,5-difluorophenyl)dihydro-1′H,3′H,5′H-spiro[piperidine-4,2′-pyrazolo[1,2-a]pyrazol]-1′-one], the EC50 came to 144 nM.

In the case of `CSc1ncc(C)c(N2CCC3(CC2)CN2CC[C@@H](c4cc(F)cc(F)c4)N2C3=O)n1` [Example 1.66, (S)-7′-(3,5-difluorophenyl)-1-(5-methyl-2-(methylthio)pyrimidin-4-yl)dihydro-1′H,3′H,5′H-spiro[piperidine-4,2′-pyrazolo[1,2-a]pyrazol]-1′-one], the 50% effective concentration (EC50) came out at 673 nM.

For the compound `Cc1cc2c(N3CCC4(CC3)CN3CC[C@@H](c5cc(F)cc(F)c5)N3C4=O)ncnc2s1` [Example 1.67, (S)-7′-(3,5-difluorophenyl)-1-(6-methylthieno[2,3-d]pyrimidin-4-yl)dihydro-1′H,3′H,5′H-spiro[piperidine-4,2′-pyrazolo[1,2-a]pyrazol]-1′-one], the EC50 is 38 nM.

Regarding `O=C1N2[C@H](c3cc(F)cc(F)c3)CCN2CC12CCN(c1ncnc3sccc13)CC2` [Example 1.68, (S)-7′-(3,5-difluorophenyl)-1-(thieno[2,3-d]pyrimidin-4-yl)dihydro-1′H,3′H,5′H-spiro [piperidine-4,2′-pyrazolo[1,2-a]pyrazol]-1′-one], the EC50 came out at 24 nM.

Consider `O=C1N2[C@H](c3cc(F)cc(F)c3)CCN2CC12CCN(c1cc(N3CCCC3)ncn1)CC2` [Example 1.69, (S)-7′-(3,5-difluorophenyl)-1-(6-(pyrrolidin-1-yl)pyrimidin-4-yl)dihydro-1′H,3′H,5′H-spiro[piperidine-4,2′-pyrazolo[1,2-a]pyrazol]-l′-one], for which the EC50 was 296 nM.

As to `O=C1N2[C@H](c3cc(F)cc(F)c3)CCN2CC12CCN(c1cncc(-n3cccn3)n1)CC2` [Example 1.70, (S)-1-(6-(1H-pyrazol-1-yl)pyrazin-2-yl)-7′-(3,5-difluorophenyl)dihydro-1′H,3′H,5′H-spiro[piperidine-4,2′-pyrazolo[1,2-a]pyrazol]-1′-one], the EC50 was determined as 82 nM.

Take `O=C1N2[C@H](c3cc(F)cc(F)c3)CCN2CC12CCN(c1cccc(F)n1)CC2` [Example 1.71, (S)-7′-(3,5-difluorophenyl)-1-(6-fluoropyridin-2-yl)dihydro-1′H,3′H,5′H-spiro[piperidine-4,2′-pyrazolo[1,2-a]pyrazol]-1′-one]: the EC50 was 28 nM.

Regarding `CCc1nccc(N2CCC3(CC2)CN2CC[C@@H](c4cc(F)cc(F)c4)N2C3=O)n1` [Example 1.72, (S)-7′-(3,5-difluorophenyl)-1-(2-ethylpyrimidin-4-yl)dihydro-1′H,3′H,5′H-spiro[piperidine-4,2′-pyrazolo[1,2-a]pyrazol]-1′-one], the 50% effective concentration (EC50) was determined as 208 nM.

In the case of `Cc1csc2ncnc(N3CCC4(CC3)CN3CC[C@@H](c5cc(F)cc(F)c5)N3C4=O)c12` [Example 1.73, (S)-7′-(3,5-difluorophenyl)-1-(5-methylthieno[2,3-d]pyrimidin-4-yl)dihydro-1′H,3′H,5′H-spiro[piperidine-4,2′-pyrazolo[1,2-a]pyrazol]-l′-one], the EC50 was 4 nM.

As for `N#Cc1cc(N2CCC3(CC2)CN2CC[C@@H](c4cc(F)cc(F)c4)N2C3=O)ncn1` [Example 1.74, (S)-6-(7′-(3,5-difluorophenyl)-1′-oxodihydro-1′H,3′H,5′H-spiro[piperidine-4,2′-pyrazolo[1,2-a]pyrazol]-1-yl)pyrimidine-4-carbonitrile], the concentration for a half-maximal effect (EC50) amounted to 30 nM.

Regarding `N#Cc1ccnc(N2CCC3(CC2)CN2CC[C@@H](c4cc(F)cc(F)c4)N2C3=O)n1` [Example 1.75, (S)-2-(7′-(3,5-difluorophenyl)-1′-oxodihydro-1′H,3′H,5′H-spiro[piperidine-4,2′-pyrazolo[1,2-a]pyrazol]-1-yl)pyrimidine-4-carbonitrile], the EC50 turned out to be 49 nM.

In the case of `N#Cc1cnc(N2CCC3(CC2)CN2CC[C@@H](c4cc(F)cc(F)c4)N2C3=O)nc1` [Example 1.76, (S)-2-(7′-(3,5-difluorophenyl)-1′-oxodihydro-1′H,3′H,5′H-spiro[piperidine-4,2′-pyrazolo[1,2-a]pyrazol]-1-yl)pyrimidine-5-carbonitrile], the half-maximal effective concentration (EC50) amounted to 35 nM.

The values are drawn from patent publication US20240425524A1, “SPIROTRICYCLE RIPK1 INHIBITORS AND METHODS OF USES THEREOF” (Merck Sharp & Dohme LLC, priority 2021, published 2024).
